Reference: US10323037B2, “Aminopyridazinone compounds as protein kinase inhibitors” (Jiangsu Hengrui Medicine Co., Ltd., priority 2014, dated 2019)

Target: Btk (Homo sapiens (Human), UniProt Q06187)
Assay: Btk kinase assay (ADP-Glo)
Type: biochemical
Settings: ATP 1.2 μM, 60 minutes, room temperature; read-out: BTK enzyme IC50
Protocol: Btk Kinase Assay—The Btk kinase assay was performed using a ADP-Glo Btk kinase assay kit purchased from Promega (Madison, Wis.). The assay was conducted according to the protocols provided in the assay kit. In brief, the enzyme reaction was carried out in the kinase reaction buffer containing Btk (2 ng/μl), ATP (1.2 μM), poly GT peptide (0.3 μM), DTT (40 nM), MnCl2 (1.4 mM), and 1×kinase buffer (included in the kit) in the presence or absence of the tested articles at various concentrations in 384-well plate at room temperature (22±1° C.) for 60 minutes. The final reaction volume for each reaction was 10 μl. Then, 4 μl of ADP-Glo reagent (included in the kit) was added into the reaction and the plate was further incubated for another 40 minutes to terminate the reaction and deplete the remaining ATP. Finally, 10 μl of the kinase detection reagent was added into each reaction to simultaneously convert ADP to ATP and allow the newly synthesized ATP to be measured by a plate-reading luminometer (Victor X5 2030 multilabel reader, PerkinElmer). IC50 value was calculated using appropriate programs in GraphPad Prism by plotting the logarithm of the concentration versus percent inhibition as compared with a vehicle (DMSO) control.

Chain of Btk (Q06187 whole entry): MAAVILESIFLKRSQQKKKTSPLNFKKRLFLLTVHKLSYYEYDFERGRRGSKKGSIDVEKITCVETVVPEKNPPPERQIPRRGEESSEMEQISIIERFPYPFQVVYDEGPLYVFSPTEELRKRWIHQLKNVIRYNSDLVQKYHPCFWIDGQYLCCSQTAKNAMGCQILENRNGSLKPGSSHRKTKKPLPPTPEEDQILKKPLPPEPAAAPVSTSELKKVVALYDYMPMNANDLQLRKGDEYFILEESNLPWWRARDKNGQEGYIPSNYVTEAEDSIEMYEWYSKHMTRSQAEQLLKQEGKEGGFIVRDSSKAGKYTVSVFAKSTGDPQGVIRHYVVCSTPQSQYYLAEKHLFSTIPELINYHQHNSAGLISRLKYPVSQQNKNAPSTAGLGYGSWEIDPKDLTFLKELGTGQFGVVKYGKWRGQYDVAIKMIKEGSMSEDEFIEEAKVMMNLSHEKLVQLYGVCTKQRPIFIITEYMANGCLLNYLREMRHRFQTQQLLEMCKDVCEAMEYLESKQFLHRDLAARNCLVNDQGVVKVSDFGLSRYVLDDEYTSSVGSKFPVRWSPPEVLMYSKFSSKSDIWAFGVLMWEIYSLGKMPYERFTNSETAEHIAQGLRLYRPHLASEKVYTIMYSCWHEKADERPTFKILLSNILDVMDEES

| Compound | IC50 [nM] |
| --- | --- |
| C=CC(=O)N[C@H]1CC[C@@H](n2cc(-c3ccc(Oc4ccccc4)cc3)c3c(N)n[nH]c(=O)c32)CC1 [Example 11, N-((1s,4s)-4-(4-amino-7-oxo-3-(4-phenoxyphenyl)-6,7-dihydro-1H-pyrrolo[2,3-d]pyridazin-1-yl)cyclohexyl)acrylamide] | 10 to 1000 |

Tested on: TMD-8 cells
Assay: Cell proliferation assay (CellTiter-Glo), TMD-8
Type: cell-based
Settings: 5-day treatment; read-out: TMD8 cells growth IC50
Method in brief: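 TMD-8 cells seeded at 5,000–10,000/well, cultured overnight, then exposed to compound (vehicle 0.5% DMSO) for 5 days at 37 °C. Growth read by CellTiter-Glo luminescence; IC50 from log concentration versus % growth inhibition relative to vehicle.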

| Compound | IC50 [nM] |
| --- | --- |
| C=CC(=O)N[C@H]1CC[C@@H](n2cc(-c3ccc(Oc4ccccc4)cc3)c3c(N)n[nH]c(=O)c32)CC1 [Example 11, N-((1s,4s)-4-(4-amino-7-oxo-3-(4-phenoxyphenyl)-6,7-dihydro-1H-pyrrolo[2,3-d]pyridazin-1-yl)cyclohexyl)acrylamide] | ≤ 10 |
| CN(C)C/C=C/C(=O)NC1CCC(n2cc(-c3ccc(Oc4ccccc4)cc3)c3c(N)n[nH]c(=O)c32)CC1 (centres unmarked) [Example 46, (E)-N-[4-[4-amino-7-oxo-3-(4-phenoxyphenyl)-6H-pyrrolo[2,3 d]pyridazin-1-yl]cyclohexyl]-4-(dimethylamino)but-2-enamide] | 10 to 1000 |

Same assay, conditions: Homo sapiens, TMD8, 120 h; 5-day treatment; read-out: TMD8 cells growth IC50

| Compound | IC50 [nM] |
| --- | --- |
| CN(C/C=C/C(=O)N1CCC[C@@H](n2cc(-c3ccc(Oc4ccccc4)cc3)c3c(N)n[nH]c(=O)c32)C1)C1CC1 [Example 29, 4-amino-1-[(3R)-1-[(E)-4-(cyclopropyl(methyl)amino)but-2-enoyl]-3-piperidyl]-3-(4-phenoxyphenyl)-6H-pyrrolo[2,3-d]pyridazin-7-one] | ≤ 10 |
| C/C=C/C(=O)N1CCC[C@@H](n2cc(-c3ccc(Oc4ccccc4)cc3)c3c(N)n[nH]c(=O)c32)C1 [Example 25, 4-amino-1-[(3R)-1-[(E)-but-2-enoyl]-3-piperidyl]-3-(4-phenoxyphenyl)-6H-pyrrolo[2,3-d]pyridazin-7-one] | 10 to 1000 |
| CC#CC(=O)N1C[C@H](OC)[C@@H](n2cc(-c3ccc(Oc4ccccc4F)cc3)c3c(N)n[nH]c(=O)c32)C1 [Example 98, 4-amino-1-((3S,4S)-1-(but-2-ynoyl)-4-methoxypyrrolidin-3-yl)-3-(4-(2-fluorophenoxy)phenyl)-1H-pyrrolo[2,3-d]pyridazin-7(6H)-one and Enantiomer] | 10 to 1000 |
| C=CC(=O)N1CCC[C@@H](n2c(Cl)c(-c3ccc(Oc4ccccc4)cc3)c3c(N)n[nH]c(=O)c32)C1 [Example 80, (R)-1-(1-acryloylpiperidin-3-yl)-4-amino-2-chloro-3-(4-phenoxyphenyl)-1H-pyrrolo[2,3-d]pyridazin-7(6H)-one] | 10 to 1000 |
| C=CC(=O)N1CCCC(n2cc(-c3ccc(OC)c(Cl)c3)c3c(N)n[nH]c(=O)c32)C1 (centres unmarked) [Example 53, 1-(1-acryloylpiperidin-3-yl)-4-amino-3-(3-chloro-4-methoxyphenyl)-1H-pyrrolo[2,3-d]pyridazin-7(6H)-one] | 10 to 1000 |
| C=CC(=O)N1CC[C@@H](n2cc(-c3ccc(Oc4ccccc4)cc3)c3c(N)n[nH]c(=O)c32)C1 [Example 4, 4-amino-3-(4-phenoxyphenyl)-1-[(3R)-1-prop-2-enoylpyrrolidin-3-yl]-6H-pyrrolo[2,3-d]pyridazin-7-one] | 10 to 1000 |
| C=CC(=O)N1CCCC(n2cc(-c3ccc(Oc4ccc(F)cc4)cc3)c3c(N)n[nH]c(=O)c32)C1 (centres unmarked) [Example 60, 1-(1-acryloylpiperidin-3-yl)-4-amino-3-(4-(4-fluorophenoxy)phenyl)-1H-pyrrolo[2,3-d]pyridazin-7(6H)-one] | 10 to 1000 |
| CCC(=O)N1CCCC(n2cc(-c3ccc(Oc4ccccc4)cc3)c3c(N)n[nH]c(=O)c32)C1 (centres unmarked) [Example 19, 4-amino-3-(4-phenoxyphenyl)-1-(1-propionylpiperidin-3-yl)-1H-pyrrolo[2,3-d]pyridazin-7(6H)-one] | 10 to 1000 |
| Nc1n[nH]c(=O)c2c1c(-c1ccc(Oc3ccccc3)cc1)cn2[C@@H]1CCCN(C(=O)/C=C/CN2CCC2)C1 [Example 33, 4-amino-1-[(3R)-1-[(E)-4-(azetidin-1-yl)but-2-enoyl]-3-piperidyl]-3-(4-phenoxyphenyl)-6H-pyrrolo[2,3-d]pyridazin-7-one] | ≤ 10 |
| Nc1n[nH]c(=O)c2c1c(-c1ccc(Oc3ccccc3)cc1)cn2[C@@H]1CCCN(C(=O)/C=C/CNC2CC2)C1 [Example 28, 4-amino-1-[(3R)-1-[(E)-4-(cyclopropylamino)but-2-enoyl]-3-piperidyl]-3-(4-phenoxyphenyl)-6H-pyrrolo[2,3-d]pyridazin-7-one] | ≤ 10 |
| CN(C)C/C=C/C(=O)N1CCC[C@@H](n2cc(-c3ccc(Oc4ccccc4Cl)cc3)c3c(N)n[nH]c(=O)c32)C1 [Example 71, 4-amino-3-[4-(2-chlorophenoxy)phenyl]-1-[(3R)-1-[(E)-4-(dimethylamino)but-2-enoyl]-3-piperidyl]-6H-pyrrolo[2,3-d]pyridazin-7-one] | ≤ 10 |
| C=CC(=O)N1CCCC(n2cc(-c3ccc(OC)cc3)c3c(N)n[nH]c(=O)c32)C1 (centres unmarked) [Example 51, 1-(1-acryloylpiperidin-3-yl)-4-amino-3-(4-methoxyphenyl)-1H-pyrrolo[2,3-d]pyridazin-7(6H)-one] | 10 to 1000 |
| N#C/C(=C\C1CC1)C(=O)N1CCC[C@@H](n2cc(-c3ccc(Oc4ccccc4)cc3)c3c(N)n[nH]c(=O)c32)C1 [Example 50, (E)-2-[(3R)-3-[4-amino-7-oxo-3-(4-phenoxyphenyl)-6H-pyrrolo[2,3-d]pyridazin-1-yl]piperidine-1-carbonyl]-3-cyclopropyl-prop-2-enenitrile] | 10 to 1000 |
| C=CC(=O)N1CC(Cn2cc(-c3ccc(Oc4ccccc4)cc3)c3c(N)n[nH]c(=O)c32)C1 [Example 12, 4-amino-3-(4-phenoxyphenyl)-1-[(1-prop-2-enoylazetidin-3-yl)methyl]-6H-pyrrolo[2,3-d]pyridazin-7-one] | ≤ 10 |
| CC#CC(=O)N1CC[C@@H](n2cc(-c3ccc(Oc4ccccc4Cl)cc3)c3c(N)n[nH]c(=O)c32)C1 [Example 96, (R)-4-amino-1-(1-(but-2-ynoyl)pyrrolidin-3-yl)-3-(4-(2-chlorophenoxy)phenyl)-1H-pyrrolo[2,3-d]pyridazin-7(6H)-one] | 10 to 1000 |
| CN(C)C/C=C/C(=O)N1CCC[C@@H](n2c(F)c(-c3ccc(Oc4ccccc4)cc3)c3c(N)n[nH]c(=O)c32)C1 [Example 82, 4-amino-1-[(3R)-1-[(E)-4-(dimethylamino)but-2-enoyl]-3-piperidyl]-2-fluoro-3-(4-phenoxyphenyl)-6H-pyrrolo[2,3-d]pyridazin-7-one] | ≤ 10 |
| C=CC(=O)N1CCCC(n2cc(-c3ccc(Oc4ccc(Cl)cc4)cc3)c3c(N)n[nH]c(=O)c32)C1 (centres unmarked) [Example 64, 1-(1-acryloylpiperidin-3-yl)-4-amino-3-(4-(4-chlorophenoxy)phenyl)-1H-pyrrolo[2,3-d]pyridazin-7(6H)-one] | ≤ 10 |
| C=CC(=O)N1CCC[C@@H](n2cc(-c3ccc(Oc4c(F)cccc4F)cc3)c3c(N)n[nH]c(=O)c32)C1 [Example 58, (R)-1-(1-acryloylpiperidin-3-yl)-4-amino-3-(4-(2,6-difluorophenoxy)phenyl)-1H-pyrrolo[2,3-d]pyridazin-7(6H)-one] | ≤ 10 |
| C=CC(=O)Nc1cccc(-n2cc(-c3ccc(Oc4ccccc4)cc3)c3c(N)n[nH]c(=O)c32)c1 [Example 88, N-(3-(4-amino-7-oxo-3-(4-phenoxyphenyl)-6,7-dihydro-1H-pyrrolo[2,3-d]pyridazin-1-yl)phenyl)acrylamide] | ≤ 10 |
| CC#CC(=O)NC1CCC(n2cc(-c3ccc(Oc4ccccc4F)cc3)c3c(N)n[nH]c(=O)c32)C1 (centres unmarked) [Example 100, N-(3-(4-amino-3-(4-(2-fluorophenoxy)phenyl)-7-oxo-6,7-dihydro-1H-pyrrolo[2,3-d]pyridazin-1-yl)cyclopentyl)but-2-ynamide] | ≤ 10 |
| N#CN1CCC[C@@H](n2cc(-c3ccc(Oc4c(F)cccc4F)cc3)c3c(N)n[nH]c(=O)c32)C1 [Example 84, (R)-3-(4-amino-3-(4-(2,6-difluorophenoxy)phenyl)-7-oxo-6,7-dihydro-1H-pyrrolo[2,3-d]pyridazin-1-yl)piperidine-1-carbonitrile] | ≤ 10 |
| CC#CC(=O)N1CC[C@@H](n2cc(-c3ccc(Oc4c(F)cccc4Cl)cc3)c3c(N)n[nH]c(=O)c32)C1 [Example 94, (R)-4-amino-1-(1-(but-2-ynoyl)pyrrolidin-3-yl)-3-(4-(2-chloro-6-fluorophenoxy)phenyl)-1H-pyrrolo[2,3-d]pyridazin-7(6H)-one] | ≤ 10 |
| CN(C)C/C=C/C(=O)N1CCC[C@@H](n2cc(-c3ccc(Oc4ccccc4F)cc3)c3c(N)n[nH]c(=O)c32)C1 [Example 57, 4-amino-1-[(3R)-1-[(E)-4-(dimethylamino)but-2-enoyl]-3-piperidyl]-3-[4-(2-fluorophenoxy)phenyl]-6H-pyrrolo[2,3-d]pyridazin-7-one] | ≤ 10 |
| CN(C)C/C=C/C(=O)N1CCC(n2cc(-c3ccc(Oc4ccccc4)cc3)c3c(N)n[nH]c(=O)c32)CC1 [Example 44, 4-amino-1-[1-[(E)-4-(dimethylamino)but-2-enoyl]-4-piperidyl]-3-(4-phenoxyphenyl)-6H-pyrrolo[2,3-d]pyridazin-7-one] | 10 to 1000 |
| Nc1n[nH]c(=O)c2c1c(-c1ccc(Oc3ccccc3)cc1)cn2[C@@H]1CCCN(C(=O)CCl)C1 [Example 22, 4-amino-1-[(3R)-1-(2-chloroacetyl)-3-piperidyl]-3-(4-phenoxyphenyl)-6H-pyrrolo[2,3-d]pyridazin-7-one] | 10 to 1000 |
| C=CC(=O)N1CCCC(n2cc(-c3ccc(Oc4cccc(Cl)c4)cc3)c3c(N)n[nH]c(=O)c32)C1 (centres unmarked) [Example 66, 1-(1-acryloylpiperidin-3-yl)-4-amino-3-(4-(3-chlorophenoxy)phenyl)-1H-pyrrolo[2,3-d]pyridazin-7(6H)-one] | ≤ 10 |
